Laboratory results: PMC6755732, “Structural, Biochemical, and In Vivo Characterization of MtrR-Mediated Resistance to Innate Antimicrobials by the Human Pathogen Neisseria gonorrhoeae” (Journal of Bacteriology, 2019)

Columns and labels:
[1] = CAPS buffer; no reference given; cited from earlier work
[2] = target: T1, MtrR-mtrCDE promoter (Neisseria gonorrhoeae, UniProt P39897); type: biochemical; details: 10 mM CAPS, pH 8.0
T1 construct: nearly all 210 residues of each protomer observed, with the exception of residues 1 through 7; hexahistidine tag (thrombin-cleavable) (cleaved yes); made in house
Method: Thus, to rule out any effect of alkaline pH on MtrR-DNA interactions, we buffered the CAPS used in the FP assay to pH 8.0 before testing its effect on DNA binding.
Fluorescence polarization-based DNA binding experiments were performed with a Panvera Beacon 2000 fluorescence polarization system (Invitrogen) utilizing 5′-fluorescein-labeled DNA. Polarization (P) of such 5′-labeled DNA increases as a function of protein binding, and equilibrium dissociation constants are determined by curve fitting the values of millipolarization (P × 10^−3) units against the protein concentration. To determine the effects of various ligands on MtrR-DNA binding, 1 nM 5′-fluoresceinated oligodeoxynucleotide duplexes containing the mtrC operator site in 1 ml binding buffer (20 mM Tris HCl [pH 8.0], 100 mM NaCl, and 2.5% glycerol) were titrated against increasing concentrations of purified MtrR in the presence or absence of the indicated concentrations of bile salt, and the resulting changes in polarization were measured. All the samples were excited at 490 nm, and their polarized emissions were measured at 530 nm. All the data were plotted using Kaleidagraph (Synergy Software) and Prism (GraphPad Software), and the resulting plots were fitted to the following equation: P = {(Pbound − Pfree)[protein]/(KD + [protein])} + Pfree, where P is the polarization measured at a given protein concentration, Pfree is the initial polarization of the free ligand, Pbound is the maximum polarization of specifically bound ligand, KD is the equilibrium dissociation constant, and [protein] is the protein concentration. Nonlinear least-squares analysis was used to determine Pbound, and Kd. The reported binding constants are the average values from at least three independent experimental measurements.

T1 sequence (P39897 whole entry): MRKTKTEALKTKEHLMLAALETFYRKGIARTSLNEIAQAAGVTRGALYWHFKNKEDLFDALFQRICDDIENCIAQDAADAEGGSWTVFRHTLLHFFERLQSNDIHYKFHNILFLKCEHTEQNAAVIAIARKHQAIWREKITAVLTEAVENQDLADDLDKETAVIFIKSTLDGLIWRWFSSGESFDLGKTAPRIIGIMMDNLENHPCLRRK

In the case of `O=S(=O)(O)CCCNC1CCCCC1` [CAPS, N-cyclohexyl-3-aminopropanesulfonic acid], the pKa [1] is given as roughly 10.5 and the “Fold reduction of MtrR affinity for the mtrC operator sequence” value [2] is given as greater than 300 fold.
